Data reported in patent US9145354B2, “Pharmaceutical compounds” (priority 2011, dated 2015).
Like-named read-outs stand apart in the source and are kept apart here.

What was measured:
[1] = target: full length NS3/4a (Hepatitis C virus genotype 1b (isolate BK) (HCV), UniProt P26663); experiment: NS3 Protease Assay (Example A), FRET-based; assay type: biochemical
Procedure, shortened: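 Initial rates were taken from fluorescence progress curves over 30 min at room temperature, and IC50 was fitted across replicates. In-house full-length NS3/4a cleaved a FRET peptide (5-FAMsp/QXL520) from the NS4A/B site. Medium: 50 mM Tris pH8, 20 mM DTT, 1% CHAPS, 10% glycerol, 5% DMSO.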

[2] = tested on: HCV subgenomic replicon in Huh-7 cells; experiment: Replicon Assay (Example B), luciferase readout EC50; assay type: cell-based; settings: Hepatitis C virus, Huh-7, replicon assay, luciferase readout; upper value of the cell pair; read-out: Assay B EC50
Procedure, shortened: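 Huh-7 cells carrying a luciferase-neo HCV subgenomic replicon (NS3–NS5b) were treated with semilog compound dilutions (0.1% DMSO final), in triplicate, for 72 h at 37° C. EC50 came from Bright-Glo luciferase signal as a proxy for replicon RNA; viability was read by Alamar blue.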

[3] = Replicon Assay (Example B), Alamar Blue cytotoxicity CC50; assay type: cell-based; settings: human, lower value of the cell pair
Procedure, shortened: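 Huh-7 cells carrying a luciferase/neo HCV subgenomic replicon (NS3–NS5b) were treated with semilog compound dilutions in triplicate (0.1% DMSO) for 72 h at 37 °C. Viability came from Alamar blue resazurin-to-resorufin fluorescence (535/590 nm) for CC50. EC50 came from Bright-Glo luciferase luminescence as a proxy for HCV RNA.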

[4] = HCV NS3 protease assay, full length NS3/4a, read-out: Assay A IC50 (μM) average
[5] = read-out: IC50 against the protease activity of the full length NS3/4a

full length NS3/4a, sequence (P26663 1027-1657): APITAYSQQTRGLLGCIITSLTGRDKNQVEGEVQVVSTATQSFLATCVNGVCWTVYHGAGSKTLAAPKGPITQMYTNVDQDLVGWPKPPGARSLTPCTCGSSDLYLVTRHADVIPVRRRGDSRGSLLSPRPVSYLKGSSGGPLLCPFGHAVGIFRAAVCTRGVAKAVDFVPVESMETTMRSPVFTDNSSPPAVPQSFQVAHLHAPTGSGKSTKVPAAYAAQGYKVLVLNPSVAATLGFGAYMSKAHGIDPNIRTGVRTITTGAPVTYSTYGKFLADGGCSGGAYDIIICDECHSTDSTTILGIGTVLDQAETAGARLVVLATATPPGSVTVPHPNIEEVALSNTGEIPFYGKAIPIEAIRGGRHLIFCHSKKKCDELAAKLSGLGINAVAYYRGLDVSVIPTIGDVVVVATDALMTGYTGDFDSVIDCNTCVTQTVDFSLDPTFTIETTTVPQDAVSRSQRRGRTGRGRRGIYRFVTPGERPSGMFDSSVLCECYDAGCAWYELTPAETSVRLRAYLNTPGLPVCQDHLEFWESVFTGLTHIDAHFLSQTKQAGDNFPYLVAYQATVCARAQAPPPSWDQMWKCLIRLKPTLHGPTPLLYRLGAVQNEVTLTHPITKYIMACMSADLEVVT

SMILES | IC50 [1, 4] | EC50 [2] | CC50 at 72 h [3] | IC50 [1, 5] | inhibition at 0.1 µM ([1]; @ 0.1 uM)
COc1ccc([C@H](N[C@@H](C)CC(N)=O)C2CC2)c(F)c1C(=O)c1cccc(F)c1 [Example 224, (3S)-3-{[(R)-cyclopropyl({2-fluoro-3-[(3-fluorophenyl)carbonyl]-4-methoxyphenyl})methyl]amino}butanamide] | 0.081 µM | 190 nM | > 3000 nM |  | 
CC[C@@H](CC(N)=O)N[C@H](CC)c1ccc(Cl)c(C(=O)c2ccc(N)nc2)c1F [Example 225, (3S)-3-{[(1R)-1-{3-[(6-aminopyridin-3-yl)carbonyl]-4-chloro-2-fluorophenyl}propyl]amino} pentanamide] | 0.35 µM | 28 nM | > 3000 nM |  | 
CC[C@@H](N[C@@H](C)CC(N)=O)c1ccc(Cl)c(C(=O)c2cccc(O)c2)c1F [Example 227, (3S)-3-{[(1R)-1-{4-chloro-2-fluoro-3-[(3-hydroxyphenyl)carbonyl]phenyl}propyl]amino} butanamide] | 0.15 µM | 11 nM | > 3000 nM | < 1 µM | 
CC[C@@H](N[C@@H](C)CC(N)=O)c1ccc(Cl)c(C(=O)c2ccc3c(n2)NC(=O)CO3)c1F [Example 229, (3S)-3-{[(1R)-1-[4-chloro-2-fluoro-3-({3-oxo-2H,3H,4H-pyrido[3,2-b][1,4]oxazin-6-yl}carbonyl)phenyl]propyl]amino}butanamide] | 1.1 µM | 1900 nM | > 3000 nM | 1 to 5 µM | 
CC[C@@H](N[C@@H](C)CC(N)=O)c1ccc(Cl)c(C(=O)c2ccc(O)cc2)c1F [Example 230, (3S)-3-{[(1R)-1-{4-chloro-2-fluoro-3-[(4-hydroxyphenyl)carbonyl]phenyl}propyl]amino} butanamide] | 0.55 µM | 37 nM | > 3000 nM | < 1 µM | 
CC[C@@H](N[C@@H](C)CC(N)=O)c1ccc(Cl)c(C(=O)c2ccc(N)c(Cl)c2)c1F [Example 234, (3S)-3-{[(1R)-1-{3-[(4-amino-3-chlorophenyl)carbonyl]-4-chloro-2-fluorophenyl}propyl]amino} butanamide] | 0.14 µM | 2.8 nM | > 1000 nM | < 1 µM | 
CC[C@@H](N[C@@H](C)CC(N)=O)c1ccc(Cl)c(C(=O)c2ccc(C#N)c(OC)c2)c1F [Example 235, (3S)-3-{[(1R)-1-{4-chloro-3-[(4-cyano-3-methoxyphenyl)carbonyl]-2-fluorophenyl}propyl]amino} butanamide] | 0.13 µM | 8.8 nM | > 1000 nM | < 1 µM | 
C[C@@H](CC(N)=O)N[C@@H](c1ccc(Cl)c(C(=O)c2ccc(N)cn2)c1F)C1CC1 [Example 237, (3S)-3-{[(R)-{3-[(5-aminopyridin-2-yl)carbonyl]-4-chloro-2-fluorophenyl}(cyclopropyl)methyl]amino}butanamide] | 0.31 µM | 47 nM | > 1000 nM |  | 
C[C@@H](CC(N)=O)N[C@@H](c1ccc(Cl)c(C(=O)c2ccc(C#N)cn2)c1F)C1CC1 [Example 238, (3S)-3-{[(R)-{4-chloro-3-[(5-cyanopyridin-2-yl)carbonyl]-2-fluorophenyl}(cyclopropyl)methyl]amino}butanamide] | 0.11 µM | 30 nM | > 1000 nM |  | 
CC[C@@H](N[C@@H](C)CC(N)=O)c1ccc(Cl)c(C(=O)c2cc(C)c(N)cn2)c1F [Example 239, (3S)-3-{[(1R)-1-{3-[(5-amino-4-methylpyridin-2-yl)carbonyl]-4-chloro-2-fluorophenyl}propyl]amino} butanamide] | 0.5 µM | 38 nM | > 1000 nM |  | 
CC[C@@H](N[C@@H](C)CC(=O)NCCO)c1ccc(Cl)c(C(=O)c2ccc(N)nc2)c1F [Example 242, (3S)-3-{[(1R)-1-{3-[(6-aminopyridin-3-yl)carbonyl]-4-chloro-2-fluorophenyl}propyl]amino}-N-(2-hydroxyethyl)butanamide] | 0.49 µM | 98 nM | > 1000 nM |  | 
CC[C@@H](N[C@@H](C)CC(N)=O)c1ccc(Cl)c(C(=O)c2ccc3c(c2)OCC(=O)N3)c1F [Example 247, (3S)-3-{[(1R)-1-{4-chloro-2-fluoro-3-[(3-oxo-3,4-dihydro-2H-1,4-benzoxazin-7-yl)carbonyl]phenyl}propyl]amino}butanamide] | 0.29 µM | 21 nM | > 1000 nM | < 1 µM | 
CC[C@@H](N[C@@H](C)CC(N)=O)c1ccc(Cl)c(C(=O)c2ccc3c(c2)OCCN3)c1F [Example 249, (3S)-3-{[(1R)-1-{4-chloro-3-[(3,4-dihydro-2H-1,4-benzoxazin-7-yl)carbonyl]-2-fluorophenyl}propyl]amino} butanamide] | 0.27 µM | 33 nM | > 1000 nM |  | 
CC[C@@H](NC(C)(C)CC(N)=O)c1ccc(Cl)c(C(=O)c2ccc(N)nc2)c1F [Example 250, 3-{[(1R)-1-{3-[(6-aminopyridin-3-yl)carbonyl]-4-chloro-2-fluorophenyl}propyl]amino}-3-methylbutanamide] | 0.095 µM | 29 nM | > 1000 nM |  | 
CC[C@H](NC(C)(C)CC(N)=O)c1ccc(Cl)c(C(=O)c2ccc(N)nc2)c1F [Example 251, 3-{[(1S)-1-{3-[(6-aminopyridin-3-yl)carbonyl]-4-chloro-2-fluorophenyl}propyl]amino}-3-methylbutanamide] | 0.3 µM | > 1000 nM | > 1000 nM |  | 
CC[C@@H](N[C@@H](C)CC(N)=O)c1ccc(OC)c(C(=O)c2ccc(N)nc2)c1F [Example 252, (3S)-3-{[(1R)-1-{3-[(6-aminopyridin-3-yl)carbonyl]-2-fluoro-4-methoxyphenyl}propyl]amino}butanamide] | 0.18 µM | 130 nM | > 1000 nM |  | 
C[C@@H](CC(N)=O)N[C@@H](c1ccc(Cl)c(C(=O)c2ccc(N)c(C#N)c2)c1F)C1CC1 [Example 255, (3S)-3-{[(R)-{3-[(4-amino-3-cyanophenyl)carbonyl]-4-chloro-2-fluorophenyl}(cyclopropyl)methyl]amino}butanamide] | 0.24 µM | 27 nM | > 1000 nM |  | 
C=CC[C@@H](N[C@@H](C)CC(N)=O)c1ccc(Cl)c(C(=O)c2ccc(N)nc2)c1F [Example 256, (3S)-3-{[(1R)-1-{3-[(6-aminopyridin-3-yl)carbonyl]-4-chloro-2-fluorophenyl}but-3-en-1-yl]amino} butanamide] | 0.47 µM | 46 nM | > 1000 nM |  | 
CCC[C@@H](N[C@@H](C)CC(N)=O)c1ccc(Cl)c(C(=O)c2ccc(N)nc2)c1F [Example 258, (3S)-3-{[(1R)-1-{3-[(6-aminopyridin-3-yl)carbonyl]-4-chloro-2-fluorophenyl}butyl]amino} butanamide] | 0.28 µM | 20 nM | > 1000 nM | < 1 µM | 
CC[C@@H](N[C@@H](C)CC(N)=O)c1ccc(Cl)c(C(=O)c2ccc(N)c(C)c2)c1F [Example 259, (3S)-3-{[(1R)-1-{3-[(4-amino-3-methylphenyl)carbonyl]-4-chloro-2-fluorophenyl}propyl]amino} butanamide] | 0.11 µM | 21 nM | > 1000 nM | < 1 µM | 
C[C@@H](CC(N)=O)N[C@@H](c1ccc(Cl)c(C(=O)c2ccc(N)c(Cl)c2)c1F)C1CC1 [Example 261, (3S)-3-{[(R)-{3-[(4-amino-3-chlorophenyl)carbonyl]-4-chloro-2-fluorophenyl}(cyclopropyl)methyl]amino}butanamide] | 0.16 µM | 9.1 nM | > 1000 nM | < 1 µM | 
Cc1cc(C(=O)c2c(Cl)ccc([C@H](N[C@@H](C)CC(N)=O)C3CC3)c2F)ccc1N [Example 262, (3S)-3-{[(R)-{3-[(4-amino-3-methylphenyl)carbonyl]-4-chloro-2-fluorophenyl}-(cyclopropyl)-methyl]-amino}butanamide] |  | 8.5 nM | > 1000 nM |  | 32%
C[C@@H](CC(N)=O)N[C@@H](c1ccc(Cl)c(C(=O)c2ccc(CO)cc2)c1F)C1CC1 [Example 263, (3S)-3-{[(R)-(4-chloro-2-fluoro-3-{[4-(hydroxyl-methyl)phenyl]-carbonyl}phenyl)(cyclo-propyl)-methyl]amino}-butanamide] | 0.11 µM | 4 nM | 79000 nM |  | 
[2H]C([2H])([2H])C([2H])([2H])[C@@H](N[C@@H](C)CC(N)=O)c1ccc(Cl)c(C(=O)c2ccc(N)nc2)c1F [Example 265, (3S)-3-{[(1R)-1-{3-[(6-aminopyridin-3-yl)carbonyl]-4-chloro-2-fluorophenyl}(2,2,3,3,3-deutero)propyl]amino}-butanamide] | 0.13 µM | 25 nM | > 3000 nM |  | 
[2H]C([2H])([2H])C([2H])([2H])[C@@H](N[C@@H](C)CC(N)=O)c1ccc(Cl)c(C(=O)c2ccc(N)c(Cl)c2)c1F [Example 267, (3S)-3-{[(1R)-1-{3-[(4-amino-3-chlorophenyl)carbonyl]-4-chloro-2-fluorophenyl}(2,2,3,3,3-deutero)propyl]amino}-butanamide] | 0.085 µM | 5 nM | > 3000 nM | < 1 µM | 
